Calls of active or inactive are those of the source. No cut-off for these calls is given here.
Assays:
[1] = test system: Mus musculus; assay: Antibotulinum activity against botulinum neurotoxin serotype A-induced toxicity in iv dosed mouse after 48 hrs; assay type: functional, organism-based
[2] = species on record: Mus musculus; assay: Toxicity in mouse at 2.5 mM; assay type: organism-based; details: in vivo, 2500 µM
[3] = test system: Mus musculus; assay: Antibotulinum activity against botulinum neurotoxin serotype A-induced toxicity in iv dosed mouse assessed as time to death; assay type: functional

## CC(=O)OC1C(=O)CC(C)(C)C23OC2CC(c2ccccc2)C13C (racemic)
[1]
  Activity: inactive
[2]
  Activity: Non-toxic

## CC(=O)O[C@@H]1C[C@H](O)[C@@]23CO[C@@H](O)[C@]1(C)[C@@H]2C[C@@H](O)[C@]1(C)[C@@H]3C(=O)[C@H](OC(C)=O)[C@@]2(C)[C@H](c3ccoc3)C[C@H]3O[C@]321 [TOOSENDANIN]
[3]
  Activity: 7.1 h

— ChEMBL document CHEMBL1143365, “Function-oriented synthesis applied to the anti-botulinum natural product toosendanin” (Bioorg Med Chem, 2009)
